Key:
[1] = tested on: control sera (pooled serum of ten healthy LUMC hospital workers; commercial negative donor pooled serum from the Dutch bloodbank); format: binding, human; parameters: Binding of Control serum LUMC to linear peptides / Binding of Control serum Blood-bank to linear peptides / Binding of Control serum LUMC to looped peptides / Binding of Control Serum Blood-Bank to Looped peptides / Binding of Control serum LUMC to linear peptides of the protein M of SARS-CoV Urbani / Binding of Control serum Blood-bank to linear peptides of the protein M of SARS-CoV Urbani / Binding of Control serum LUMC to looped peptides of the protein M of SARS-CoV Urbani / Binding of Control Serum Blood-Bank to Looped peptides of the protein M of SARS-CoV Urbani: unit not given here
[2] = tested on: recombinant human anti-SARS-CoV antibody 03-018; format: binding; parameters: Binding of antibody 03-018 to linear peptides of the N protein of SARS-CoV Urbani / Binding of antibody 03-018 to looped/cyclic peptides of the N protein of SARS-CoV Urbani: unit not given here
[3] = tested on: rabbit serum obtained by immunizing a rabbit with the SARS-CoV strain Frankfurt 1; format: binding; parameters: Binding of a rabbit serum to linear peptides / Binding of a rabbit serum to looped peptides / Rabbit serum linear peptides / Rabbit serum looped peptides / Binding of a rabbit serum to linear peptides of protein N of SARS-CoV Urbani (Rabbit serum linear peptides) / Binding of a rabbit serum to looped/cyclic peptides of protein N of SARS-CoV Urbani (Rabbit serum looped peptides): unit not given here
[4] = tested on: antibodies in sera from SARS patients (sera 1a, 1b, 2, 6, 37, 62, London, SARS-yellow, SARS-green); format: binding, human; parameters: Binding of serum 6 to linear peptides of protein X1 of SARS-CoV Urbani / Binding of serum 37 to linear peptides of protein X1 of SARS-CoV Urbani / Binding of serum 6 to looped/cyclic peptide (PEPSCAN-ELISA) / Binding of serum 37 to looped/cyclic peptide (PEPSCAN-ELISA) / Binding of serum 37 to looped/cyclic peptides of protein X1 of SARS-CoV Urbani / Binding of serum 6 to linear peptides of protein X2 / Binding of serum 37 to linear peptides of protein X2 / Binding of serum 37 to looped/cyclic peptides of protein X2 of SARS-CoV Urbani / Binding of serum 6 to linear peptides of protein M of SARS-CoV Urbani / Binding of serum 37 to linear peptides of protein M of SARS-CoV Urbani / Binding of serum 6 to looped/cyclic peptides of protein M of SARS-CoV Urbani / Binding of serum 37 to looped/cyclic peptides of protein M of SARS-CoV Urbani / Binding of serum 6 to linear peptides of protein X3 of SARS-CoV Urbani / Binding of serum 37 to linear peptides of protein X3 of SARS-CoV Urbani / Binding of serum 37 to looped/cyclic peptides of protein X3 of SARS-CoV Urbani / Binding of serum 6 to linear peptides of protein X4 of SARS-CoV Urbani / Binding of serum 37 to linear peptides of protein X4 of SARS-CoV Urbani / Binding of serum 37 to looped/cyclic peptides of protein X4 of SARS-CoV Urbani / Binding of serum 6 to linear peptides of protein X5 of SARS-CoV Urbani / Binding of serum 37 to linear peptides of protein X5 of SARS-CoV Urbani / Binding of serum 37 to looped/cyclic peptides of protein X5 of SARS-CoV Urbani / Binding of serum 6 to linear peptides of protein N of SARS-CoV Urbani / Binding of serum 37 to linear peptides of protein N of SARS-CoV Urbani / Binding of serum 6 to linear peptide (PEPSCAN-ELISA) / Binding of serum 1a to looped/cyclic peptides of protein N of SARS-CoV Urbani / Binding of serum 1b to looped/cyclic peptides of protein N of SARS-CoV Urbani / Binding of serum 2 to looped/cyclic peptides of protein N of SARS-CoV Urbani / Binding of serum 6 to looped/cyclic peptides of protein N of SARS-CoV Urbani / Binding of serum 37 to looped/cyclic peptides of protein N of SARS-CoV Urbani / Binding of serum 62 to looped/cyclic peptides of protein N of SARS-CoV Urbani / Binding of serum London to looped/cyclic peptides of protein N of SARS-CoV Urbani / Binding of serum SARS-green to looped/cyclic peptides of protein N of SARS-CoV Urbani: unit not given here

Sequence | Binding of Control Serum Blood-Bank to Looped peptides [1] | Binding of Control serum Blood-bank to linear peptides [1] | Binding of Control serum LUMC to linear peptides [1] | Binding of Control serum LUMC to looped peptides [1] | Binding of antibody 03-018 to linear peptides of the N protein of SARS-CoV Urbani [2] | Binding of antibody 03-018 to looped/cyclic peptides of the N protein of SARS-CoV Urbani [2] | Binding of a rabbit serum to linear peptides of protein N of SARS-CoV Urbani (Rabbit serum linear peptides) [3] | Binding of a rabbit serum to looped/cyclic peptides of protein N of SARS-CoV Urbani (Rabbit serum looped peptides) [3] | Binding of serum 1a to looped/cyclic peptides of protein N of SARS-CoV Urbani [4] | Binding of serum 1b to looped/cyclic peptides of protein N of SARS-CoV Urbani [4] | Binding of serum 2 to looped/cyclic peptides of protein N of SARS-CoV Urbani [4] | Binding of serum 6 to looped/cyclic peptides of protein N of SARS-CoV Urbani [4] | Binding of serum 37 to looped/cyclic peptides of protein N of SARS-CoV Urbani [4] | Binding of serum 62 to looped/cyclic peptides of protein N of SARS-CoV Urbani [4] | Binding of serum London to looped/cyclic peptides of protein N of SARS-CoV Urbani [4] | Binding of serum SARS-green to looped/cyclic peptides of protein N of SARS-CoV Urbani [4] | Binding of serum SARS-yellow to looped/cyclic peptides of protein N of SARS-CoV Urbani [4] | Binding of serum 1a to linear peptides of protein N of SARS-CoV Urbani [4] | Binding of serum 1b to linear peptides of protein N of SARS-CoV Urbani [4] | Binding of serum 2 to linear peptides of protein N of SARS-CoV Urbani [4] | also measured
GNSPARMASGGGETA | 0.5 | 0.8 | 0.7 | 0.4 | 0.2 | 0.2 | 0.1 | 0.0 | 0.2 | 0.1 | 0.3 | 0.1 | 0.2 | 0.2 | 0.3 | 0.3 | 0.0 | – | – | – | Binding of serum 1a to linear peptide (PEPSCAN-ELISA) [4]: 0.3; Binding of serum 1b to linear peptide (PEPSCAN-ELISA) [4]: 0.1; Binding of serum 2 to linear peptide (PEPSCAN-ELISA) [4]: 0.2; Binding of serum 6 to linear peptide (PEPSCAN-ELISA) [4]: 0.2; Binding of serum 37 to linear peptide (PEPSCAN-ELISA) [4]: 0.6; Binding of serum 62 to linear peptide (PEPSCAN-ELISA) [4]: 0.6; Binding of serum London to linear peptide (PEPSCAN-ELISA) [4]: 0.6; Binding of serum SARS-green to linear peptide (PEPSCAN-ELISA) [4]: 0.2; Binding of serum SARS-yellow to linear peptide (PEPSCAN-ELISA) [4]: 0.5
GPDDQIGYYRRATRR | 0.9 | 0.8 | 0.8 | 0.9 | 0.1 | 0.3 | – | – | 0.4 | 0.3 | 0.5 | 0.4 | 0.8 | 0.8 | 0.5 | 0.6 | 0.9 | 0.2 | 0.1 | 0.2 | Recognition of the peptide by the rabbit serum [3]: recognized; Binding of serum 6 to linear peptides of protein N of SARS-CoV Urbani [4]: 0.2; Binding of serum 37 to linear peptides of protein N of SARS-CoV Urbani [4]: 0.6; Binding of serum 62 to linear peptides of protein N of SARS-CoV Urbani [4]: 0.6; Binding of serum London to linear peptides of protein N of SARS-CoV Urbani [4]: 0.4; Binding of serum SARS-green to linear peptides of protein N of SARS-CoV Urbani [4]: 0.3; Binding of serum SARS-yellow to linear peptides of protein N of SARS-CoV Urbani [4]: 0.6
GPEASLPYGANKEGI | 0.6 | 0.9 | 0.9 | 0.8 | 0.1 | 0.2 | 0.1 | 0.3 | 0.3 | 0.2 | 0.4 | 0.2 | 0.6 | 0.5 | 0.4 | 0.5 | 0.3 | 0.3 | 0.2 | 0.3 | Binding of serum 6 to linear peptides of protein N of SARS-CoV Urbani [4]: 0.3; Binding of serum 37 to linear peptides of protein N of SARS-CoV Urbani [4]: 0.8; Binding of serum 62 to linear peptides of protein N of SARS-CoV Urbani [4]: 0.9; Binding of serum London to linear peptides of protein N of SARS-CoV Urbani [4]: 0.6; Binding of serum SARS-green to linear peptides of protein N of SARS-CoV Urbani [4]: 0.7; Binding of serum SARS-yellow to linear peptides of protein N of SARS-CoV Urbani [4]: 0.6

— patent US20070128217A1 (priority 2003, published 2007)
